Results from US11566226B2, “Natural killer cells” (Imperial College of Science, Technology and Medicine, priority 2017, dated 2023).

Columns and labels:
human HPCs = human HPCs cultured in vitro; previously demonstrated; cited from earlier work
E4bp4 = conditions: cited from earlier work
HPCs = test: NK cell production from HPCs treated with SR8278 and/or cultured on rDLL4 (flow cytometry); assay type: cell-based, mouse; conditions: SR8278 on day 2 of culture, no rDLL4; average of triplicate experiments
Method: HPCs were cultured in four sets of conditions in addition to control (non-treated) conditions: (i) treated with SR8278 on day 2 of culture (no recombinant DLL4, rDLL4); (ii) cultured on rDLL4 (no SR8278); (iii) cultured on rDLL4 and treated with SR8278 on day 0 of culture; or (iv) treated with SR8278 on day 0 of culture, cultured on rDLL4 from day 2. Aside from the different treatments, the culture conditions were otherwise identical to those previously described for NK cell production from HPCs.
This experiment was repeated with an expanded set of culture conditions, as set out in FIG. 13. The results of this duplicate experiment are illustrated in FIG. 14.
Lineage negative HPCs were purified from mouse bone marrow by crushing the leg bones in Phosphate-buffered Saline (PBS) with 2% fetal calf serum (FCS) (STEMCELL Technologies), topped up to 40 ml with magnetic-activated cell sorting (MACS) buffer (PBS, 2 mM EDTA, 0.5% BSA, sterile and filtered) and centrifuged at 800 g for 2 minutes. […]
(§1) Cells to be analysed by flow cytometry were passed through 40 μm cell strainers to remove clumps and washed with PBS buffer, centrifuged at 800 g for 2 minutes and resuspended in 100 μl fluorescent activated cell sorting (FACS) buffer (PBS plus 1% BSA) with appropriate fluorochrome conjugated antibodies at a dilution of 1 in 300. […]

HPC culture = conditions: previously demonstrated, cited from earlier work
E4bp4−/− Lin− BM cells = test: NK cell development from E4bp4−/− Lin− BM cells on rDLL1/rDLL4-coated plates; assay type: cell-based, mouse; conditions: plates coated with 10 μg/ml ligand, first 7 days of culture, then IL-15
Method: As E4bp4 appeared to regulate Notch1 expression, it was speculated that enhanced Notch signalling, at an early stage, could potentially affect the development of NK cells from E4bp4^−/− HPCs. To study NK cell development from HPCs in the presence or absence of Notch signalling, Lin^− BM cells were cultured on either OP9 stromal cells or OP9-DL1 cells (that express the Notch ligand delta-like 1) (FIG. 10C). Subsequently, cells were transferred onto fresh OP9 and cultured in the presence of IL-15 (FIG. 11A). When E4bp4^−/− cells were grown on control OP9, no NK cell development was observed, but when the E4bp4^−/− cells were grown on OP9-DL1 for the first part of the culture, remarkably, NK cell development was rescued (FIG. 11B). The same result was not observed when the cells were grown on OP9-DL1 for the second part of the culture (FIG. 11B). To eliminate the influence of stromal cells, tissue culture plates were coated with either recombinant delta-like ligand 1 (rDLL1) or rDLL4 protein. […]
as §1

| Molecule | Human NK cell development (human HPCs) | E4bp4 expression (E4bp4) | % of NK cells produced (HPCs) | Optimum dose for in vitro NK cell production (HPC culture; added to the HPC culture, optimum time Day 2) | Increase of production of NK cells (HPC culture; upon administration of SR8278) | Rescue of NK cell production in the absence of E4bp4 (E4bp4−/− Lin− BM cells) |
| --- | --- | --- | --- | --- | --- | --- |
| CCOC(=O)C1Cc2ccccc2CN1C(=O)c1ccc(SC)s1 (stereo not drawn) [SR8278, 1,2,3,4-Tetrahydro-2-[[5-(methylthio)-2-thienyl]carbonyl]-3-isoquinolinecarboxylic acid ethyl ester] | significantly increase | increased | 57.5% | 10 µM | more than 2 fold | – |
| rDLL1: recombinant delta-like ligand 1 protein (R&D Systems), coated on culture plates (protein, UniProt O00548 18-723, looked up) Delta-like protein 1: QVWSSGVFELKLQEFVNKKGLLGNRNCCRGGAGPPPCACRTFFRVCLKHYQASVSPEPPCTYGSAVTPVLGVDSFSLPDGGGADSAFSNPIRFPFGFTWPGTFSLIIEALHTDSPDDLATENPERLISRLATQRHLTVGEEWSQDLHSSGRTDLKYSYRFVCDEHYYGEGCSVFCRPRDDAFGHFTCGERGEKVCNPGWKGPYCTEPICLPGCDEQHGFCDKPGECKCRVGWQGRYCDECIRYPGCLHGTCQQPWQCNCQEGWGGLFCNQDLNYCTHHKPCKNGATCTNTGQGSYTCSCRPGYTGATCELGIDECDPSPCKNGGSCTDLENSYSCTCPPGFYGKICELSAMTCADGPCFNGGRCSDSPDGGYSCRCPVGYSGFNCEKKIDYCSSSPCSNGAKCVDLGDAYLCRCQAGFSGRHCDDNVDDCASSPCANGGTCRDGVNDFSCTCPPGYTGRNCSAPVSRCEHAPCHNGATCHERGHRYVCECARGYGGPNCQFLLPELPPGPAVVDLTEKLEGQGGPFPWVAVCAGVILVLMLLLGCAAVVVCVRLRLQKHRPPADPCRGETETMNNLANCQREKDISVSIIGATQIKNTNKKADFHGDHSADKNGFKARYPAVDYNLVQDLKGDDTAVRDAHSKRDTKCQPQGSSGEEKGTPTTLRGGEASERKRPDSGCSTSKDTKYQSVYVISEEKDECVIATEV | – | – | – | – | – | Only a very partial rescue |
